pEC50: −log10 of the molar value.
Biological target: recombinant IL4I1 (Homo sapiens (Human), UniProt Q96RQ9)
Test: IL4I1 Enzymatic Assay (Amplex Red/HRP coupled H2O2 detection)
Assay type: biochemical
Conditions: 1 nM IL4I1, 1 mM each Phe/Tyr/Trp, four-hour pre-incubation, 120 minutes reaction, top compound concentration of 10000 nM
Experimental: Interleukin 4 inducible protein 1 (IL4I1) is an L-amino oxidase that catalyzes the oxidation of aromatic residues (Phe, Trp and Tyr): L-amino acid+H2O+O2→2-oxo acid+NH3+H2O2. Equal molar of H2O2 and the corresponding alpha-ketoacid are produced when IL4I1 and substrate are added. In this assay, the hydrogen peroxide generated by IL4I1 are then detected through a coupled reaction with Amplex Red (10-acetyl-3,7-dihydroxyphenoxazine) and […] (HRP) to produce Resorufin product that could be detected in the form of fluorescence signals. The assessment of the inhibitory effect of small molecules (EC50) on IL4I1 is measured by the effectiveness of the compounds to inhibit the production of H2O2.
Using this assay, the potency (EC50) of each compound was determined from a ten-point (1:3 serial dilution; top compound concentration of 10000 nM) titration curve using the following outlined procedure. To each well of a black flat-bottom Greiner (Cat #781076) 384 well-plate, 25 nL of compound (0.1% DMSO in final assay volume of 25 μL) was dispensed, followed by the addition of 12.5 μL of 1× assay buffer (50 mM Hepes 7.0 and 0.005% Tween20 (Sigma, Cat #P8341; low peroxide grade)) containing 2 nM of recombinant IL4I1 (R&D Systems, Cat #5684-AO-020). Plates were placed in an ambient temperature humidified chamber for a four-hour pre-incubation with compound. Subsequently, each reaction was initiated by the addition of 12.5 μL 1× assay buffer containing 2 mM of each aromatic amino acids (Phe/Tyr/Trp), 0.1 mM Amplex Red and 2 U/mL of HRP. The final reaction in each well of 25 μL consists of 1 nM of IL4I1, 1 mM of each residues (Phe, Tyr and Trp), 0.05 mM Amplex Red and 1 U/mL of HRP. It should be noted that the concentrations of Amplex Red and HRP used here are in excess such that the conversion of H2O2 to Resorufin product occurs instantaneously and non-rate limiting. Reactions were allowed to proceed for 120 minutes followed by fluorescence readout on a Spectramax with the following set parameters: 544 nm excitation/590 nm emission, 570 nm cutoff (EnVision is an alternative reader). Dose-response curves were generated by plotting percent effect (% product conversion; Y-axis) vs. Log10 compound concentrations (X-axis). EC50 values were calculated using a non-linear regression, four-parameters sigmoidal dose-response model.

Sequence of recombinant IL4I1 (Q96RQ9 22-567): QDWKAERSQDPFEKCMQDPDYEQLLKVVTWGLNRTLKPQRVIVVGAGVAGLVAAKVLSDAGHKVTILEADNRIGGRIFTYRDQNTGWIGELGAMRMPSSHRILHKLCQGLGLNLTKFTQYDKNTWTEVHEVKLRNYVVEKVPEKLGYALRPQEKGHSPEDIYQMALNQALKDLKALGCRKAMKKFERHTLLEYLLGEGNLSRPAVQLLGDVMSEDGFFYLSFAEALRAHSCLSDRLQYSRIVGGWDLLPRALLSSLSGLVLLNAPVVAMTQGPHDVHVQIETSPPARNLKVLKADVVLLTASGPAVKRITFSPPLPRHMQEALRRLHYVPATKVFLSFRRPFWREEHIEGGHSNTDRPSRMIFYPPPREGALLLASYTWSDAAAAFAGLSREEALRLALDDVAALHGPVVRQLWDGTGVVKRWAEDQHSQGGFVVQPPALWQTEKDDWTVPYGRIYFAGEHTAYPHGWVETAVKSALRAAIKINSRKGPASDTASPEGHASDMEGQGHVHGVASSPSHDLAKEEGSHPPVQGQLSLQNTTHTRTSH

| SMILES | pEC50 |
| --- | --- |
| O=c1[nH]c2ccccc2cc1Cc1nnc(-c2ncn3ccccc23)o1 [Example 16, 3-((5-(imidazo[1,5-a]pyridin-1-yl)-1,3,4-oxadiazol-2-yl)methyl)quinolin-2(1H)-one] | 7.99 |
| Cc1snnc1-c1nnc(Cc2cc3ccccc3[nH]c2=O)o1 [Example 17, 3-((5-(5-methyl-1,2,3-thiadiazol-4-yl)-1,3,4-oxadiazol-2-yl)methyl)quinolin-2(1H)-one] | 6.77 |
| O=c1[nH]c2ccccc2cc1Cc1nnc(-c2c[nH]c(C3CC3)n2)o1 [Example 18, 3-((5-(2-cyclopropyl-1H-imidazol-4-yl)-1,3,4-oxadiazol-2-yl)methyl)quinolin-2(1H)-one] | 7.63 |
| Cc1nnc(Cc2cc3ccccc3[nH]c2=O)o1 [Example 20, 3-((5-methyl-1,3,4-oxadiazol-2-yl)methyl)quinolin-2(1H)-one] | 6.20 |
| O=c1[nH]c2ccccc2cc1Cc1nnc(C2CC3(CCC3)C2)o1 [Example 21, 3-((5-(spiro[3.3]heptan-2-yl)-1,3,4-oxadiazol-2-yl)methyl)quinolin-2(1H)-one] | 6.75 |
| Cc1cnc(-c2nnc(Cc3cc4ccccc4[nH]c3=O)o2)s1 [Example 22, 3-((5-(5-methylthiazol-2-yl)-1,3,4-oxadiazol-2-yl)methyl)quinolin-2(1H)-one] | 6.69 |
| O=c1[nH]c2ccccc2cc1Cc1nnc(Cc2ccc(Br)cc2)o1 [Example 23, 3-((5-(4-bromobenzyl)-1,3,4-oxadiazol-2-yl)methyl)quinolin-2(1H)-one] | 6.90 |
| Cc1noc(C)c1Cc1nnc(Cc2cc3ccccc3[nH]c2=O)o1 [Example 24, 3-((5-((3,5-dimethylisoxazol-4-yl)methyl)-1,3,4-oxadiazol-2-yl)methyl)quinolin-2(1H)-one] | 6.71 |
| O=c1[nH]c2ccccc2cc1Cc1nnc(Cc2cccnn2)o1 [Example 25] | 6.21 |
| O=c1[nH]c2ccccc2cc1Cc1nnc(-c2ccn3ncnc3c2)o1 [Example 26, 3-((5-([1,2,4]triazolo[1,5-a]pyridin-7-yl)-1,3,4-oxadiazol-2-yl)methyl)quinolin-2(1H)-one] | 6.50 |
| O=c1[nH]c2ccccc2cc1Cc1nnc(CC2CC2)o1 [Example 27, 3-((5-(cyclopropylmethyl)-1,3,4-oxadiazol-2-yl)methyl)quinolin-2(1H)-one] | 7.15 |
| O=c1[nH]c2ccccc2cc1Cc1nnc(-c2cc(C(F)(F)F)[nH]n2)o1 [Example 28, 3-((5-(5-(trifluoromethyl)-1H-pyrazol-3-yl)-1,3,4-oxadiazol-2-yl)methyl)quinolin-2(1H)-one] | 6.90 |
| Cc1oncc1-c1nnc(Cc2cc3ccccc3[nH]c2=O)o1 [Example 29, 3-((5-(5-methylisoxazol-4-yl)-1,3,4-oxadiazol-2-yl)methyl)quinolin-2(1H)-one] | 6.26 |
| O=c1[nH]c2ccccc2cc1Cc1nnc(-c2cnsc2)o1 [Example 30, 3-((5-(isothiazol-4-yl)-1,3,4-oxadiazol-2-yl)methyl)quinolin-2(1H)-one] | 6.16 |
| O=c1[nH]c2ccccc2cc1Cc1nnc(Cc2cnccn2)o1 [Example 31, 3-((5-(pyrazin-2-ylmethyl)-1,3,4-oxadiazol-2-yl)methyl)quinolin-2(1H)-one] | 6.77 |
| O=c1[nH]c2ccccc2cc1Cc1nnc(C2CCC2)o1 [Example 32, 3-((5-cyclobutyl-1,3,4-oxadiazol-2-yl)methyl)quinolin-2(1H)-one] | 6.77 |
| N#Cc1ccc(F)c(-c2nnc(Cc3cc4ccccc4[nH]c3=O)o2)c1 [Example 33, 4-fluoro-3-(5-((2-oxo-1,2-dihydroquinolin-3-yl)methyl)-1,3,4-oxadiazol-2-yl)benzonitrile] | 7.19 |
| O=c1[nH]c2ccccc2cc1Cc1nnc(C2(C(F)(F)F)CC2)o1 [Example 34, 3-((5-(1-(trifluoromethyl)cyclopropyl)-1,3,4-oxadiazol-2-yl)methyl)quinolin-2(1H)-one] | 6.19 |
| COc1ccc(C#N)cc1Cc1nnc(Cc2cc3ccccc3[nH]c2=O)o1 [Example 35, 4-methoxy-3-((5-((2-oxo-1,2-dihydroquinolin-3-yl)methyl)-1,3,4-oxadiazol-2-yl)methyl)benzonitrile] | 7.33 |
| Cc1nn(C)cc1-c1nnc(Cc2cc3ccccc3[nH]c2=O)o1 [Example 36, 3-((5-(1,3-dimethyl-1H-pyrazol-4-yl)-1,3,4-oxadiazol-2-yl)methyl)quinolin-2(1H)-one] | 7.51 |

| SMILES | pEC50 |
| --- | --- |
| O=C1CC(Cc2nnc(Cc3cc4ccccc4[nH]c3=O)o2)CC(=O)N1 [Example 37, 4-((5-((2-oxo-1,2-dihydroquinolin-3-yl)methyl)-1,3,4-oxadiazol-2-yl)methyl)piperidine-2,6-dione] | 6.86 |
| O=c1[nH]c2ccccc2cc1Cc1nnc(-c2scnc2Cl)o1 [Example 38, 3-((5-(4-chlorothiazol-5-yl)-1,3,4-oxadiazol-2-yl)methyl)quinolin-2(1H)-one] | 7.60 |
| O=c1[nH]c2ccccc2cc1Cc1nnc(-c2cc3c(s2)CCC3)o1 [Example 39, 3-((5-(5,6-dihydro-4H-cyclopenta[b]thiophen-2-yl)-1,3,4-oxadiazol-2-yl)methyl)quinolin-2(1H)-one] | 7.99 |
| O=c1[nH]c2ccccc2cc1Cc1nnc(-c2ncnc3c2CCC3)o1 [Example 40, 3-((5-(6,7-dihydro-5H-cyclopenta[d]pyrimidin-4-yl)-1,3,4-oxadiazol-2-yl)methyl)quinolin-2(1H)-one] | 7.63 |
| N#Cc1cn[nH]c1-c1nnc(Cc2cc3ccccc3[nH]c2=O)o1 [Example 41, 5-(5-((2-oxo-1,2-dihydroquinolin-3-yl)methyl)-1,3,4-oxadiazol-2-yl)-1H-pyrazole-4-carbonitrile] | 7.87 |
| CC1(c2nnc(Cc3cc4ccccc4[nH]c3=O)o2)CC1 [Example 42, 3-((5-(1-methylcyclopropyl)-1,3,4-oxadiazol-2-yl)methyl)quinolin-2(1H)-one] | 7.68 |
| COC(=O)NCc1nnc(Cc2cc3ccccc3[nH]c2=O)o1 [Example 43, methyl ((5-((2-oxo-1,2-dihydroquinolin-3-yl)methyl)-1,3,4-oxadiazol-2-yl)methyl)carbamate] | 6.23 |
| Cc1n[nH]c(-c2nnc(Cc3cc4ccccc4[nH]c3=O)o2)c1C [Example 44, 3-((5-(3,4-dimethyl-1H-pyrazol-5-yl)-1,3,4-oxadiazol-2-yl)methyl)quinolin-2(1H)-one] | 8.11 |
| CC1CC(=O)NC1c1ccc(Cc2cc3ccccc3[nH]c2=O)cc1 (stereo not drawn) [Example 45, 3-(4-(3-methyl-5-oxopyrrolidin-2-yl)benzyl)quinolin-2(1H)-one] | 8.17 |
| O=c1[nH]c2ccccc2cc1Cc1ccc(N2CCCS2(=O)=O)nc1 [Example 46, 3-((6-(1,1-dioxidoisothiazolidin-2-yl)pyridin-3-yl)methyl)quinolin-2(1H)-one] | 8.23 |
| CCS(=O)(=O)Nc1ccc(Cc2cc3ccccc3[nH]c2=O)cn1 [Example 47, N-(5-((2-oxo-1,2-dihydroquinolin-3-yl)methyl)pyridin-2-yl)ethanesulfonamide] | 7.97 |
| CS(=O)(=O)Nc1ccc(Cc2cc3ccccc3[nH]c2=O)cn1 [Example 48, N-(5-((2-oxo-1,2-dihydroquinolin-3-yl)methyl)pyridin-2-yl)methanesulfonamide] | 7.67 |
| CC1(C)CN(c2ccc(Cc3cc4ccccc4[nH]c3=O)cn2)C(=O)O1 [Example 52, 5,5-dimethyl-3-(5-((2-oxo-1,2-dihydroquinolin-3-yl)methyl)pyridin-2-yl)oxazolidin-2-one] | 7.97 |
| O=C1OCCN1c1ncc(Cc2cc3ccccc3[nH]c2=O)cc1Cl [Example 53] | 8.25 |
| CC1(Nc2ccc(Cc3cc4ccccc4[nH]c3=O)cc2)CNC1 [Example 58, 3-(4-((3-methylazetidin-3-yl)amino)benzyl)quinolin-2(1H)-one] | 8.01 |
| O=c1[nH]c2ccccc2cc1Cc1ccc(N2CCNCC2)cc1 [Example 59, 3-(4-(piperazin-1-yl)benzyl)quinolin-2(1H)-one] | 7.63 |
| O=C1OCCN1c1ccc(Cc2cc3cnccc3[nH]c2=O)cc1 [Example 61, 3-(4-((2-oxo-1,2-dihydro-1,6-naphthyridin-3-yl)methyl)phenyl)oxazolidin-2-one] | 8.57 |
| O=c1[nH]c2ccccc2cc1Cc1ccc(C2CNC2)cc1 [Example 63, 3-(4-(azetidin-3-yl)benzyl)quinolin-2(1H)-one] | 8.01 |
| CC(=O)NCc1ccc(Cc2cc3ccccc3[nH]c2=O)cc1Cl [Example 66, N-(2-chloro-4-((2-oxo-1,2-dihydroquinolin-3-yl)methyl)benzyl)acetamide] | 8.70 |
